One experiment concerns the target T1, Histone deacetylase 8 (Homo sapiens, UniProt Q9BY41).
T1 sequence (Q9BY41 whole entry): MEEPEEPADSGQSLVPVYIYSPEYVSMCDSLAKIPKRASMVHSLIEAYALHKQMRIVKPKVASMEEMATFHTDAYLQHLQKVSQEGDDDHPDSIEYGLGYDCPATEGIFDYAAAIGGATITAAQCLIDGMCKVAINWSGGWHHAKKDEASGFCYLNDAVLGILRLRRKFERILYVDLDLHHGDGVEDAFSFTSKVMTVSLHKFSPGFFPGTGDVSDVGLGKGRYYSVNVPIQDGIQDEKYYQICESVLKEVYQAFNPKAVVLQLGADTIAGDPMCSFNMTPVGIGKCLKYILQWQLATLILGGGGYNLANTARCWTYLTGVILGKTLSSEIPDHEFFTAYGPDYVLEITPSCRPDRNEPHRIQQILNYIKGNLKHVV
The experiment in a line: In vitro HDAC8 Assay. On the procedure: Briefly, the HDAC8 enzyme was diluted 20 times. Then, 10 μL of HDAC8 solution was mixed with compounds at various concentrations (50 μL). Then, 40 μL of the substrate [Boc-Lys-(acetyl)-AMC, 300 μm] was added, and the mixture was incubated at 37 °C for 30 min. Subsequently, the reaction was stopped by the addition of 100 μL of developer containing trypsin (10 μg/mL) and TSA (2 μm). Fluorescence intensity was measured by a microplate reader at excitation and emission wavelengths of 390 and 460 nm, respectively.

The target in the next experiment is T2, Aminopeptidase N (Sus scrofa, UniProt P15145).
T2 sequence (P15145 whole entry): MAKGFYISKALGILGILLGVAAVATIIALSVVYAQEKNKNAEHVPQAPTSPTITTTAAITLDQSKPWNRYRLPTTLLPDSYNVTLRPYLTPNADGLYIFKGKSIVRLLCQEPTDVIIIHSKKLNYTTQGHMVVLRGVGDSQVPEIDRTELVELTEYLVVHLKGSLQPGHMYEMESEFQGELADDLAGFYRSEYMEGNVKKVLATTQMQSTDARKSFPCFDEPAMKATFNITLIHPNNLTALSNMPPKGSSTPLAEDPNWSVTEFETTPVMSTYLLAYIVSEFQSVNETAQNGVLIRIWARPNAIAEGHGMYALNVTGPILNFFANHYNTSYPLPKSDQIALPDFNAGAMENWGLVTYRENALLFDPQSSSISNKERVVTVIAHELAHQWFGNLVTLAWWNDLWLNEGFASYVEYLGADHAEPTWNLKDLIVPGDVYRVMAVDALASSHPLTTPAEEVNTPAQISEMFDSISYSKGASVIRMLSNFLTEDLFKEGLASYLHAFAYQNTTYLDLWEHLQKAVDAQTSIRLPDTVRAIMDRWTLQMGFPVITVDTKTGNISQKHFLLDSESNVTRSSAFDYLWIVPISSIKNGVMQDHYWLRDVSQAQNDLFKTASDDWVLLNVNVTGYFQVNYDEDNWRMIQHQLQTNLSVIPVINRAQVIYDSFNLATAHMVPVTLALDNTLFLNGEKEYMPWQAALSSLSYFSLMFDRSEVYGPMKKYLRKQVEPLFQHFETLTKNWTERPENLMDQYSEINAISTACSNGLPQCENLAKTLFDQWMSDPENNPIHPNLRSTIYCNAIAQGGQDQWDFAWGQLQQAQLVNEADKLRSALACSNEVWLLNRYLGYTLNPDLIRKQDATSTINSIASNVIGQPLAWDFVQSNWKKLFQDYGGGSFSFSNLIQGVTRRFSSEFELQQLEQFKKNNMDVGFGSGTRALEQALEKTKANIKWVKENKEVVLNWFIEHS
Briefly: APN Inhibition Assay. The settings on record: pH 7.2. The method, then:
Briefly, the assay was performed in 96-well plates in […] PBS, pH 7.2 as the assay buffer, at 37 °C. The APN solution was mixed with compounds at various concentrations and incubated at 37 °C for 5 min. Subsequently, the substrate (l-leucine-p-nitroanilide) was added and the mixture was incubated for 30 min at 37°C.

Structures are written as SMILES. pIC50: −log10 of the molar value.

The values below come from BindingDB's records for doi:10.1111/cbdd.12778 (Shandong University, 2016).

Broadly, the pIC50 is the IC50 on a negative log10 scale, so that one unit is a factor of ten. Low readings indicate a large IC50, high ones a small IC50.

With `CC1(C)CCC(C)(C)c2cc(NC(=O)c3ccc(C(=O)O)cc3)ccc21` [4-[(5,5,8,8-tetramethyl-5,6,7,8-tetrahydronaphthalen-2-yl)carbamoyl]benzoic acid], the pIC50 at Histone deacetylase 8 and at Aminopeptidase N was less than 4.00 each time.

For the compound `CC1(C)CCC(C)(C)c2cc(NC(=O)c3ccc(C(=O)NO)cc3)ccc21` [N1-hydroxy-N4-(5,5,8,8-tetramethyl-5,6,7,8-tetrahydronaphthalen-2-yl)terephthalamide (7b)], the pIC50 at Histone deacetylase 8 is 5.37; at Aminopeptidase N, less than 4.00.

Consider `O=C(CCCCCCC(=O)Nc1ccccc1)NO` [Zolinza], for which, on Aminopeptidase N, the pIC50 is less than 4.00.
